For 20 compounds, Ki results are on record in US8952157B2, “Apoptosis-inducing agents for the treatment of cancer and immune and autoimmune diseases” (AbbVie Inc., priority 2008, dated 2015).

The target of the experiment is GST-Bcl-2 (Homo sapiens (Human), UniProt P10415). Nature of the experiment: Time Resolved-Fluorescence Resonance Energy Transfer (TR-FRET) Bcl-2 binding assay. As to conditions: GST-Bcl-2 1 nM, F-Bak peptide probe 100 nM, Tb-anti-GST antibody 1 nM; Ki by Wang's equation. In short, it runs like this: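 Ki values derived from TR-FRET displacement of F-Bak peptide from GST-Bcl-2, detected with Tb-labelled anti-GST antibody (ex 340, em 520/495 nm). Compound dilution series started at 50 μM (2× starting concentration); room-temperature incubation 3 hours.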
Sequence of GST-Bcl-2 (P10415 whole entry): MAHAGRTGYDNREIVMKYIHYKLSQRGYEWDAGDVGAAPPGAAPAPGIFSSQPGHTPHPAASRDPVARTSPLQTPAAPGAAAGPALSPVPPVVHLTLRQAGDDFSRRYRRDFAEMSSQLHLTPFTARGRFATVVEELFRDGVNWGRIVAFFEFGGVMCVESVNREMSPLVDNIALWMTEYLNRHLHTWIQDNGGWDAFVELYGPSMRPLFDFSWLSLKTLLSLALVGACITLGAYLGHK
Background: TR-FRET usually uses a lanthanide donor and a delayed reading to cut background.
The term Ki denotes a measure of affinity in units of concentration, obtained from inhibition or displacement. Read a low Ki as higher affinity. Consider `CC1(C)CCC(CN2CCN(c3ccc(C(=O)NS(=O)(=O)c4ccc(NCCCN5CCOCC5)c([N+](=O)[O-])c4)c(Oc4cccc(F)c4F)c3)CC2)=C(c2ccc(Cl)cc2)C1` [Example 51, 4-(4-((2-(4-chlorophenyl)-4,4-dimethylcyclohex-1-en-1-yl)methyl)piperazin-1-yl)-2-(2,3-difluorophenoxy)-N-((4-((3-morpholin-4-ylpropyl)amino)-3-nitrophenyl)sulfonyl)benzamide], for which the Ki is 0.066 nM.
Next, `CC1(C)CCC(CN2CCN(c3ccc(C(=O)NS(=O)(=O)c4ccc(NCCCN5CCOCC5)c([N+](=O)[O-])c4)c(Oc4ccc(N)c(Cl)c4)c3)CC2)=C(c2ccc(Cl)cc2)C1` [Example 52, 2-(4-amino-3-chlorophenoxy)-4-(4-((2-(4-chlorophenyl)-4,4-dimethylcyclohex-1-en-1-yl)methyl)piperazin-1-yl)-N-((4-((3-morpholin-4-ylpropyl)amino)-3-nitrophenyl)sulfonyl)benzamide]: 0.072 nM.
The value for `O=C(NS(=O)(=O)c1ccc(NCC2CCOCC2)c([N+](=O)[O-])c1)c1ccc(N2CCN(Cc3cc(CCN4CCCC4)ccc3-c3ccc(Cl)cc3)CC2)cc1Oc1cccc(Cl)c1` [Example 53, 2-(3-chlorophenoxy)-4-(4-((4′-chloro-4-(2-pyrrolidin-1-ylethyl)-1,1′-biphenyl-2-yl)methyl)piperazin-1-yl)-N-((3-nitro-4-((tetrahydro-2H-pyran-4-ylmethyl)amino)phenyl)sulfonyl)benzamide] was 0.077 nM; that for `CN1CCC(Nc2ccc(S(=O)(=O)NC(=O)c3ccc(N4CCN(CC5=C(c6ccc(Cl)cc6)CC(C)(C)CC5)CC4)cc3Oc3cccc(Cl)c3Cl)cc2[N+](=O)[O-])CC1` [Example 54, 4-(4-((2-(4-chlorophenyl)-4,4-dimethylcyclohex-1-en-1-yl)methyl)piperazin-1-yl)-2-(2,3-dichlorophenoxy)-N-((4-((1-methylpiperidin-4-yl)amino)-3-nitrophenyl)sulfonyl)benzamide] was 0.082 nM.
Compound `Cc1n[nH]c2cccc(Oc3cc(N4CCN(CC5=C(c6ccc(Cl)cc6)CC(C)(C)CC5)CC4)ccc3C(=O)NS(=O)(=O)c3ccc(NC4CCN(C)CC4)c([N+](=O)[O-])c3)c12` [Example 55, 4-(4-((2-(4-chlorophenyl)-4,4-dimethylcyclohex-1-en-1-yl)methyl)piperazin-1-yl)-2-((3-methyl-1H-indazol-4-yl)oxy)-N-((4-((1-methylpiperidin-4-yl)amino)-3-nitrophenyl)sulfonyl)benzamide] returned an inhibitory constant (Ki) of 0.09 nM.
Next, `CN1CCC(Nc2ccc(S(=O)(=O)NC(=O)c3ccc(N4CCN(CC5=C(c6ccc(Cl)cc6)CCCCC5)CC4)cc3Oc3ccccc3Cl)cc2[N+](=O)[O-])CC1` [Example 56, 2-(2-chlorophenoxy)-4-(4-((2-(4-chlorophenyl)cyclohept-1-en-1-yl)methyl)piperazin-1-yl)-N-((4-((1-methylpiperidin-4-yl)amino)-3-nitrophenyl)sulfonyl)benzamide]: 0.106 nM.
Next, `CN1CCC(Nc2ccc(S(=O)(=O)NC(=O)c3ccc(N4CCN(CC5=C(c6ccc(Cl)cc6)CC(C)(C)CC5)CC4)cc3Oc3cccc(C(F)(F)F)c3)cc2[N+](=O)[O-])CC1` [Example 57, 4-(4-((2-(4-chlorophenyl)-4,4-dimethylcyclohex-1-en-1-yl)methyl)piperazin-1-yl)-N-((4-((1-methylpiperidin-4-yl)amino)-3-nitrophenyl)sulfonyl)-2-(3-(trifluoromethyl)phenoxy)benzamide]: 0.147 nM; `CN(C)CCCNc1ccc(S(=O)(=O)NC(=O)c2ccc(N3CCN(Cc4ccccc4-c4ccc(Cl)cc4)CC3)cc2Oc2cccc3c2CCC(=O)N3)cc1[N+](=O)[O-]` [Example 58, 4-(4-((4′-chloro-1,1′-biphenyl-2-yl)methyl)piperazin-1-yl)-N-((4-((3-(dimethylamino)propyl)amino)-3-nitrophenyl)sulfonyl)-2-((2-oxo-1,2,3,4-tetrahydroquinolin-5-yl)oxy)benzamide]: 0.155 nM.
Next, `CN1CCC(Nc2ccc(S(=O)(=O)NC(=O)c3ccc(N4CCN(CC5=C(c6ccc(Cl)cc6)CC(C)(C)CC5)CC4)cc3Oc3ccccc3Cl)cc2S(=O)(=O)C(F)(F)F)CC1` [Example 59, 2-(2-chlorophenoxy)-4-(4-((2-(4-chlorophenyl)-4,4-dimethylcyclohex-1-en-1-yl)methyl)piperazin-1-yl)-N-((4-((1-methylpiperidin-4-yl)amino)-3-((trifluoromethyl)sulfonyl)phenyl)sulfonyl)benzamide]: 0.184 nM.
Take `CN1CCC(Nc2ccc(S(=O)(=O)NC(=O)c3ccc(N4CCN(CC5=C(c6ccc(Cl)cc6)CC(C)(C)CC5)CC4)cc3Oc3cc(Cl)ccc3Cl)cc2[N+](=O)[O-])CC1` [Example 60, 4-(4-((2-(4-chlorophenyl)-4,4-dimethylcyclohex-1-en-1-yl)methyl)piperazin-1-yl)-2-(2,5-dichlorophenoxy)-N-((4-((1-methylpiperidin-4-yl)amino)-3-nitrophenyl)sulfonyl)benzamide]: the Ki stood at 0.187 nM.
Next, `CN1CCC(Nc2ccc(S(=O)(=O)NC(=O)c3ccc(N4CCN(CC5=C(c6ccc(Cl)cc6)CC(C)(C)CC5)CC4)cc3Oc3ccc(F)cc3Cl)cc2[N+](=O)[O-])CC1` [Example 61, 2-(2-chloro-4-fluorophenoxy)-4-(4-((2-(4-chlorophenyl)-4,4-dimethylcyclohex-1-en-1-yl)methyl)piperazin-1-yl)-N-((4-((1-methylpiperidin-4-yl)amino)-3-nitrophenyl)sulfonyl)benzamide]: 0.22 nM; `CN1CCC(Nc2ccc(S(=O)(=O)NC(=O)c3ccc(N4CCN(CC5=C(c6ccc(Cl)cc6)CC(C)(C)C5)CC4)cc3Oc3ccccc3Cl)cc2[N+](=O)[O-])CC1` [Example 62, 2-(2-chlorophenoxy)-4-(4-((2-(4-chlorophenyl)-4,4-dimethylcyclopent-1-en-1-yl)methyl)piperazin-1-yl)-N-((4-((1-methylpiperidin-4-yl)amino)-3-nitrophenyl)sulfonyl)benzamide]: 0.227 nM; `Cc1c[nH]c2cccc(Oc3cc(N4CCN(CC5=C(c6ccc(Cl)cc6)CC(C)(C)CC5)CC4)ccc3C(=O)NS(=O)(=O)c3ccc(NCCCN4CCOCC4)c([N+](=O)[O-])c3)c12` [Example 63, 4-(4-((2-(4-chlorophenyl)-4,4-dimethylcyclohex-1-en-1-yl)methyl)piperazin-1-yl)-2-((3-methyl-1H-indol-4-yl)oxy)-N-((4-((3-morpholin-4-ylpropyl)amino)-3-nitrophenyl)sulfonyl)benzamide]: 0.438 nM.
Next, `CN1CCC(Nc2ccc(S(=O)(=O)NC(=O)c3ccc(N4CCN(CC5=C(c6ccc(Cl)cc6)CC(C)(C)CC5)CC4)cc3Oc3cccc(C(F)(F)F)c3Cl)cc2[N+](=O)[O-])CC1` [Example 64, 4-(4-((2-(4-chlorophenyl)-4,4-dimethylcyclohex-1-en-1-yl)methyl)piperazin-1-yl)-2-(2-chloro-3-(trifluoromethyl)phenoxy)-N-((4-((1-methylpiperidin-4-yl)amino)-3-nitrophenyl)sulfonyl)benzamide]: 0.458 nM.
Next, `Cc1c[nH]c2cccc(Oc3cc(N4CCN(CC5=C(c6ccc(Cl)cc6)CC(C)(C)CC5)CC4)ccc3C(=O)NS(=O)(=O)c3ccc(NC4CCN(C)CC4)c([N+](=O)[O-])c3)c12` [Example 66, 4-(4-((2-(4-chlorophenyl)-4,4-dimethylcyclohex-1-en-1-yl)methyl)piperazin-1-yl)-2-((3-methyl-1H-indol-4-yl)oxy)-N-((4-((1-methylpiperidin-4-yl)amino)-3-nitrophenyl)sulfonyl)benzamide]: 0.592 nM; `CC1(C)CCC(CN2CCN(c3ccc(C(=O)NS(=O)(=O)c4ccc(NCCCN5CCOCC5)c([N+](=O)[O-])c4)c(Oc4cc(Cl)ccc4Cl)c3)CC2)=C(c2ccc(Cl)cc2)C1` [Example 67, 4-(4-((2-(4-chlorophenyl)-4,4-dimethylcyclohex-1-en-1-yl)methyl)piperazin-1-yl)-2-(2,5-dichlorophenoxy)-N-((4-((3-morpholin-4-ylpropyl)amino)-3-nitrophenyl)sulfonyl)benzamide]: 0.807 nM.
In turn, `Cn1ccc2c(Oc3cc(N4CCN(Cc5ccccc5-c5ccc(Cl)cc5)CC4)ccc3C(=O)NS(=O)(=O)c3ccc(NCCCN4CCOCC4)c([N+](=O)[O-])c3)cccc21` [Example 68, 4-(4-((4′-chloro-1,1′-biphenyl-2-yl)methyl)piperazin-1-yl)-2-((1-methyl-1H-indol-4-yl)oxy)-N-((4-((3-morpholin-4-ylpropyl)amino)-3-nitrophenyl)sulfonyl)benzamide] yielded a Ki of 5.93 nM.
The compound `O=C(NS(=O)(=O)c1ccc(NCCCN2CCOCC2)c([N+](=O)[O-])c1)c1ccc(N2CCN(Cc3ccccc3-c3ccc(Cl)cc3)CC2)cc1Oc1cccc(N2CCOCC2)c1` [Example 69, 4-(4-((4′-chloro-1,1′-biphenyl-2-yl)methyl)piperazin-1-yl)-2-(3-morpholin-4-ylphenoxy)-N-((4-((3-morpholin-4-ylpropyl)amino)-3-nitrophenyl)sulfonyl)benzamide] yielded a Ki of 8.25 nM.
Next, `CN(C)CCCNc1ccc(S(=O)(=O)NC(=O)c2ccc(N3CCN(Cc4ccccc4-c4ccc(Cl)cc4)CC3)cc2Oc2ccc3[nH]cc(CCC(=O)N4CCOCC4)c3c2)cc1[N+](=O)[O-]` [Example 70, 4-(4-((4′-chloro-1,1′-biphenyl-2-yl)methyl)piperazin-1-yl)-N-((4-((3-(dimethylamino)propyl)amino)-3-nitrophenyl)sulfonyl)-2-((3-(3-morpholin-4-yl-3-oxopropyl)-1H-indol-5-yl)oxy)benzamide]: 20.4 nM; `O=C(NS(=O)(=O)c1ccc(NCC2CCOCC2)c([N+](=O)[O-])c1)c1ccc(N2CCN(Cc3ccccc3-c3ccc(Cl)cc3)CC2)cc1Oc1cccc(OCc2ccccc2)c1` [Example 71, 2-(3-(benzyloxy)phenoxy)-4-(4-((4′-chloro-1,1′-biphenyl-2-yl)methyl)piperazin-1-yl)-N-((3-nitro-4-((tetrahydro-2H-pyran-4-ylmethyl)amino)phenyl)sulfonyl)benzamide]: 31.6 nM.
